This note sets out measurements from US11186612B2, “Substance P analog having progenitor cell or stem cell recruiting activity and method for progenitor cell or stem cell recruiting using the same” (AJOU UNIVERSITY INDUSTRY-ACADEMIC COOPERATION FOUNDATION, priority 2019, dated 2021).

Test [1] relates to human-derived MSCs (hMSCs). Briefly: Stem cell migration evaluation ex vivo (24-well Transwell plate, PKH 26-labeled hMSCs). The format is cell-based. As to conditions: 1 μg/mL in DMEM + 1% FBS in bottom well, FIG. 2; for stem cell migration compared with the control: hMSCs in upper chamber. The protocol:
In the present invention, to compare the stem cell recruiting activities of SP and the SP1 of the present invention, stem cell migration was evaluated in an ex vivo environment.
First, human-derived MSCs (hMSCs) were labeled with a PKH 26 dye (Sigma, USA), and 5×10^4 cells were put into an upper chamber (8.0 μm pore size) of a 24-well Transwell plate (SPL, Korea). After the hMSCs were cultured in the upper chamber for 48 hours using a serum-free DMEM (Gibco, USA), a medium prepared under the following conditions in Table 2 was added into a bottom well, and then the medium was replaced with a fresh one every third day, followed by observing hMSCs in the bottom well using a fluorescence microscope.

The test system of test [2] is human-derived MSCs (hMSCs). Briefly: In vivo migration of ICG-labeled hMSCs to injected Cx-HA hydrogel containing SP or SP1 (NIR fluorescence imaging). As to conditions: for fluorescence (recruited hMSC) at injected site: NIR-labeled Cx-HA hydrogel with 1 μg/mL peptide injected in one side of nude mouse, hMSCs via caudal vein, control Cx-HA no fluorescence. Details: species or system nude mouse. How it is done:
Each of the NIR-HA-TET and NIR-HA-TCO, which were prepared in Example 3-1, was dissolved in 2% physiological saline to have a volume of 20 mg/mL, thereby preparing an aqueous solution, and 1 μg/mL of SP having an amino acid sequence of SEQ ID NO: 1 or SP1 having an amino acid sequence of SEQ ID NO: 2 was added to each solution. After 1-hour stirring, a hyaluronic acid hydrogel solution containing a stem cell recruiting factor was obtained by mixing the mixed solution prepared by stirring each of the solutions using a dual syringe.
NIR-labeled Cx-HA was injected into one side of a nude mouse, and NIR-labeled Cx-HA containing a stem cell recruiting factor was injected into the other side thereof, as shown in Table 3.
To visually confirm the extent of stem cell recruiting of SP1 in the present invention, hMCSs were labeled with indocyanine green and injected into a mouse caudal vein.
First, an indocyanine green (ICG) solution was prepared by dissolving 2 mg of ICG in 200 μL of DMSO, and mixing the resulting solution with 800 μL of a culture medium (DMEM (low-glucose)+10% FBS+1% penicillin-streptomycin). 10 μL of a 10 mg/mL protamine solution, 600 μL of the ICG solution and 600 μL of MEM-α were mixed, and gently stirred for 5 minutes. Afterward, the medium was removed from the flask in which hMSCs were cultured, replaced with 10 mL of a serum-free DMEM (low-glucose) medium, and then incubated for 1 hour at 37° C. under a 5% CO2 condition by adding a protamine/ICG solution.
Subsequently, the medium was removed, and the cells were washed with 10 mL PBS and treated with trypsin, thereby obtaining hMSCs. The hMSCs were prepared to be 1×10^6 cells/100 μL, and […] was injected into the caudal veins of nude mice using a […] syringe (FIG. 3). NIR fluorescence imaging was performed at a predetermined time using FOBI (NeoScience, Suwon, Korea) at 730 nm under conditions of an exposure of 2000 ms and a gain of 5.
To confirm the extent of promotion of in vivo hMSC migration by SP1 in the present invention, the hMSC-injected nude mice prepared in Example 4 were subjected to NIR fluorescence imaging using FOBI (NeoScience, Suwon, Korea) at 730 nm under conditions of an exposure of 2000 ms and a gain of 5.

Where no end group is shown, it is not given here.

Turning to RISPQQRDALA (SP1), in test [1], the “number of moved stem cells compared with the SP-treated group” value is recorded as “high” and the “stem cell migration compared with the control” value is listed as “stem cells moved”. The “stem cell recruiting activity maintenance time” value in test [2] (Cx-HA hydrogel 1 μg/mL peptide, nude mouse, FIG. 6, compared with conventional SP) was “longer”. In test [2] (Cx-HA hydrogel 1 μg/mL peptide, nude mouse, NIR imaging over time, compared with SP), the “stem cell recruiting activity, comparing FIGS. 4 (SP) and 5 (SP1)” value was “higher stem cell recruiting activity”. In addition, the “amount of stem cells moved to the injected site, quantified (FIG. 6): stem cell recruiting activity” value in test [2] (Cx-HA hydrogel 1 μg/mL peptide, nude mouse, compared with conventional SP) is “higher stem cell recruiting activity”. The “fluorescence (recruited hMSC) at injected site” value in test [2] is listed as “fluorescence was observed”.
Turning to “RPKPQQFFGLM (RPKPQQFFGLM-NH2) [SP, neuropeptide of 11 amino acids (Arg-Pro-Lys-Pro-Gln-Gln-Phe-Phe-Gly-Leu-Met-NH2), endogenous NKR1 ligand, reference compound]”, the “stem cell migration compared with the control” value in test [1] is listed as “stem cells moved”. The “fluorescence (recruited hMSC) at injected site” value in test [2] is reported as “fluorescence was observed”.
